Source: patent US11771709B2, “ALK protein degradation agent and anti-tumor application thereof” (ShanghaiTech University, priority 2017, dated 2023)

Columns and labels:
Assay type in all cases: cell-based
[1] = test system: SR (NPM-ALK) cells; experiment: Growth inhibition IC50 in ALCL SR cells (CCK8/WST, 72 hours); conditions: SR cells, WST
[2] = molecular target: T1, ALK protein in SR (NPM-ALK) cells (Homo sapiens, UniProt Q9UM73); experiment: Western blot of ALK protein level (degradation, DC50), ALK phosphorylation and downstream signaling in SR cells; conditions: for DC50 / DC50 (nM) in SR: ALK protein degradation in SR cells
T1 construct: NPM (nucleophosmin, NPM1, P06748) fusion partner; host or cells: SR (ALCL) cells; the other entry of the earlier key: NPM1 (P06748, Nucleophosmin)
T1 sequence (Q9UM73 with tags, fused parts or gaps): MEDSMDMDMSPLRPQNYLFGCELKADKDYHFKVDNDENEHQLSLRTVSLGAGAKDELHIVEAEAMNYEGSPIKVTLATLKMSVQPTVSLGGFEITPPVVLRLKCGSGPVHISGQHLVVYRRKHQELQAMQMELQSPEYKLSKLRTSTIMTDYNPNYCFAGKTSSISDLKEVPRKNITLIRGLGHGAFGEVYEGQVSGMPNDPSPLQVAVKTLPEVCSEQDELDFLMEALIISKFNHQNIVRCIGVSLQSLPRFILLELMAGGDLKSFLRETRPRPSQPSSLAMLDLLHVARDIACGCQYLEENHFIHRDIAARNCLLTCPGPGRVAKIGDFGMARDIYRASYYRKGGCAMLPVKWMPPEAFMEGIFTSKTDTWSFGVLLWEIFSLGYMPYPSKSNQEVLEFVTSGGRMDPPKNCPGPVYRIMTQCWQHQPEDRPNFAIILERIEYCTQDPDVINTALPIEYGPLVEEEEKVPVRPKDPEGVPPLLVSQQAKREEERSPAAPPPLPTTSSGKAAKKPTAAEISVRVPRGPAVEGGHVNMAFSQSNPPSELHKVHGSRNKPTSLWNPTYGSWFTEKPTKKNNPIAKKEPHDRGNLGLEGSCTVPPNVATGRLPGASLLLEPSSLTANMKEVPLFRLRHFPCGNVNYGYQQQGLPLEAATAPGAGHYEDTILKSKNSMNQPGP

[3] = molecular target: T2, ALK protein in H3122 (EML4-ALK) cells (Homo sapiens, UniProt Q9UM73); experiment: Western blot of ALK protein level (degradation, DC50), ALK phosphorylation and downstream signaling in H3122 cells; conditions: ALK protein degradation in H3122 cells
T2 construct: EML4 (Echinoderm microtubule-associated protein-like 4, Q9HC35) fusion partner, variant 1; host or cells: NCI-H3122 lung adenocarcinoma cells; the other entry of the earlier key: EML4 (Q9HC35, Echinoderm microtubule-associated protein-like 4)
T2 sequence (Q9UM73 with tags, fused parts or gaps): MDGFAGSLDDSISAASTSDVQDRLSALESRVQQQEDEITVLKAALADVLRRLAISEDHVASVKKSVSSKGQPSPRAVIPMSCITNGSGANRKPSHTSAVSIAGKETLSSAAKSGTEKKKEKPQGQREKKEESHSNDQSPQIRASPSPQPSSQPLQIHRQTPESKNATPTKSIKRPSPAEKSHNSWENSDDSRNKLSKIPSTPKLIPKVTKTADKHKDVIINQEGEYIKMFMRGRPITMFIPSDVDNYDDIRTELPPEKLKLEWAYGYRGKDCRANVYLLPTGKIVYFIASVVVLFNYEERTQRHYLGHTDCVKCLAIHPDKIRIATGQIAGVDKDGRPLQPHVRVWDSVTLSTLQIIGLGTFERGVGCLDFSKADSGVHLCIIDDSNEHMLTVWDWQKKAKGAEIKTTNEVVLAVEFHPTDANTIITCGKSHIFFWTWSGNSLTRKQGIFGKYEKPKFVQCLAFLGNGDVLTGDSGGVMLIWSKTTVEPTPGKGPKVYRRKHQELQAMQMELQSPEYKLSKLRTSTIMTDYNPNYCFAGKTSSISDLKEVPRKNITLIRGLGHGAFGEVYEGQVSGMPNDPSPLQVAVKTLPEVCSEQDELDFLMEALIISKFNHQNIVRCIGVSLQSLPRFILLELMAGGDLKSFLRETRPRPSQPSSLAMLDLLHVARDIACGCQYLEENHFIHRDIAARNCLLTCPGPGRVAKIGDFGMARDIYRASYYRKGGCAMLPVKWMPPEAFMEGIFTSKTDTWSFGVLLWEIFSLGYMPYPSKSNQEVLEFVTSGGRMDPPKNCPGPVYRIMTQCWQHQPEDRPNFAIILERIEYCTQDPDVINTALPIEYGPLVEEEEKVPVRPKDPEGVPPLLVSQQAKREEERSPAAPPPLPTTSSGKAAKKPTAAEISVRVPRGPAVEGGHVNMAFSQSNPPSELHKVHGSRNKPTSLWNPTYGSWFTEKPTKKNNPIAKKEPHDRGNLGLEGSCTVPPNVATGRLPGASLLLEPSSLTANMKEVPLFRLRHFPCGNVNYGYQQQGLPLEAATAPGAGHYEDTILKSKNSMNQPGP

[4] = 72 h, Brigatinib-based PROTAD molecules (Table 3)

Row | DC50 [2] [nM] | concentration at which ALK proteins were degraded ([2]; SR cells, western blot) [nM] | DC50 [3] [nM] | DC50 (nM)) in H3122 [3] | DC50 (nM) in SR [2] | ALK protein degradation ([2]; SR cells, western blot, 16 hours, up to 500 nM) | SMILES | IC50 [1, 4] [nM] | IC50 ([1]; Alectinib based ALK PROTAD compounds (Table 4)) [nM]
1 | 100 to 500 | 1 | 1 to 10 | – | – | – | COc1cc(N2CCC(N3CCN(C(=O)CCCc4cn(CCCC(=O)N[C@H](C(=O)N5C[C@H](O)C[C@H]5C(=O)NCc5ccc(-c6scnc6C)cc5)C(C)(C)C)nn4)CC3)CC2)ccc1Nc1ncc(Cl)c(Nc2ccccc2P(C)(C)=O)n1 [SIAIS164153, (2S,4R)-1-((S)-2-(4-(4-(4-(4-(1-(4-((5-chloro-4-((2-(dimethylphosphoryl)phenyl)amino)pyrimidin-2-yl)amino)-3-methoxyphenyl)piperidin-4-yl)piperazin-1-yl)-4-oxobutyl)-1H-1,2,3-triazol-1-yl)butanamido)-3,3-dimethylbutanoyl)-4-hydroxy-N-(4-(4-methylthiazol-5-yl)benzyl)pyrrolidine-2-carboxamide] | 55.9 ± 19.9 | –
2 | 1 to 10 | – | 20 to 100 | – | – | – | COc1cc(N2CCC(NC(=O)CCCC(=O)N[C@H](C(=O)N3C[C@H](O)C[C@H]3C(=O)NCc3ccc(-c4scnc4C)cc3)C(C)(C)C)CC2)ccc1Nc1ncc(Cl)c(Nc2ccccc2P(C)(C)=O)n1 [SIAIS164144, N1-(1-(4-((5-chloro-4-((2-(dimethylphosphoryl)phenyl)amino)pyrimidin-2-yl)amino)-3-methoxyphenyl)piperidin-4-yl)-N5-((S)-1-((2S,4R)-4-hydroxy-2-((4-(4-methylthiazol-5-yl)benzyl)carbamoyl)pyrrolidin-1-yl)-3,3-dimethyl-1-oxobutan-2-yl)glutaramide] | 13.6 ± 9.1 | –
3 | 1 to 50 | – | 10 to 50 | – | – | – | COc1cc(N2CCC(N3CCN(C(=O)CCCCCC(=O)N[C@H](C(=O)N4C[C@H](O)C[C@H]4C(=O)NCc4ccc(-c5scnc5C)cc4)C(C)(C)C)CC3)CC2)ccc1Nc1ncc(Cl)c(Nc2ccccc2P(C)(C)=O)n1 [SIAIS164123, (2S,4R)-1-((S)-2-(7-(4-(1-(4-((5-chloro-4-((2-(dimethylphosphoryl)phenyl)amino)pyrimidin-2-yl)amino)-3-methoxyphenyl)piperidin-4-yl)piperazin-1-yl)-7-oxoheptanamido)-3,3-dimethylbutanoyl)-4-hydroxy-N-(4-(4-methylthiazol-5-yl)benzyl)pyrrolidine-2-carboxamide] | 11.4 ± 8.1 | –
4 | 1 to 10 | – | 50 to 100 | – | – | – | COc1cc(N2CCC(NC(=O)CCC(=O)N[C@H](C(=O)N3C[C@H](O)C[C@H]3C(=O)NCc3ccc(-c4scnc4C)cc3)C(C)(C)C)CC2)ccc1Nc1ncc(Cl)c(Nc2ccccc2P(C)(C)=O)n1 [SIAIS164143, N1-(1-(4-((5-chloro-4-((2-(dimethylphosphoryl)phenyl)amino)pyrimidin-2-yl)amino)-3-methoxyphenyl)piperidin-4-yl)-N4-((S)-1-((2S,4R)-4-hydroxy-2-((4-(4-methylthiazol-5-yl)benzyl)carbamoyl)pyrrolidin-1-yl)-3,3-dimethyl-1-oxobutan-2-yl) succinamide] | 11.7 ± 4.2 | –
5 | 100 to 500 | – | – | 0.02 to 20 nM | – | – | COc1cc(N2CCC(N3CCN(C(=O)CCOCCOCCOCCOCCOCCNc4cccc5c4C(=O)N(C4CCC(=O)NC4=O)C5=O)CC3)CC2)ccc1Nc1ncc(Cl)c(Nc2ccccc2P(C)(C)=O)n1 (stereo not drawn) [SIAIS164017, 4-((18-(4-(1-(4-((5-chloro-4-((2-(dimethylphosphoryl)phenyl)amino)pyrimidin-2-yl)amino)-3-methoxyphenyl)piperidin-4-yl)piperazin-l-yl)-18-oxo-3,6,9,12,15-pentaoxaoctadecyl)amino)-2-(2,6-dioxopiperidin-3-yl)isoindoline-1,3-dione] | 14 ± 8.6 | –
6 | 1 to 10 | – | 10 to 50 | – | – | – | COc1cc(N2CCC(N3CCN(C(=O)CCCCCCCCC(=O)N[C@H](C(=O)N4C[C@H](O)C[C@H]4C(=O)NCc4ccc(-c5scnc5C)cc4)C(C)(C)C)CC3)CC2)ccc1Nc1ncc(Cl)c(Nc2ccccc2P(C)(C)=O)n1 [SIAIS164126, (2S,4R)-1-((S)-2-(10-(4-(1-(4-((5-chloro-4-((2-(dimethylphosphoryl)phenyl)amino)pyrimidin-2-yl)amino)-3-methoxyphenyl)piperidin-4-yl)piperazin-1-yl)-10-oxodecanamido)-3,3-dimethylbutanoyl)-4-hydroxy-N-(4-(4-methylthiazol-5-yl)benzyl)pyrrolidine-2-carboxamide] | 8 ± 6.7 | –
7 | 1 to 10 | – | 100 to 500 | – | – | – | COc1cc(N2CCC(N3CCN(C(=O)CCCCCCC(=O)N[C@H](C(=O)N4C[C@H](O)C[C@H]4C(=O)NCc4ccc(-c5scnc5C)cc4)C(C)(C)C)CC3)CC2)ccc1Nc1ncc(Cl)c(Nc2ccccc2P(C)(C)=O)n1 [SIAIS164124, (2S,4R)-1-((S)-2-(8-(4-(-(4-((5-chloro-4-((2-(dimethylphosphoryl)phenyl)amino)pyrimidin-2-yl)amino)-3-methoxyphenyl)piperidin-4-yl)piperazin-1-yl)-8-oxooctanamido)-3,3-dimethylbutanoyl)-4-hydroxy-N-(4-(4-methylthiazol-5-yl)benzyl)pyrrolidine-2-carboxamide] | 9.5 ± 8.1 | –
8 | 1 to 50 | – | 1 to 50 | – | – | – | CCc1cc2c(cc1N1CCN(C(=O)CCOCCOCCNc3cccc4c3C(=O)N(C3CCC(=O)NC3=O)C4=O)CC1)C(C)(C)c1[nH]c3cc(C#N)ccc3c1C2=O (centres unmarked) [SIAIS164012, 8-(4-(3-(2-(2-((2-(2,6-dioxopiperidin-3-yl)-1,3-dioxoisoindolin-4-yl)amino)ethoxy)ethoxy)propanoyl)piperazin-1-yl)-9-ethyl-6,6-dimethyl-11-oxo-6,11-dihydro-5H-benzo[b]carbazole-3-carbonitrile] | – | 48.9
9 | – | – | – | Not degrade | Not degrade | – | COc1cc(N2CCC(N)CC2)ccc1Nc1ncc(Cl)c(Nc2ccccc2P(C)(C)=O)n1 [Brigatinib Analogue B(SIAIS151101), (2-((2-((4-(4-aminopiperidin-1-yl)-2-methoxyphenyl)amino)-5-chloropyrimidin-4-yl)amino)phenyl)dimethylphosphine oxide] | 1.7 ± 1.4 | –
10 | 100 to 500 | – | 100 to 500 | – | – | – | COc1cc(N2CCC(N3CCN(C(=O)CCOCCOCCOCCOCCC(=O)N[C@H](C(=O)N4C[C@H](O)C[C@H]4C(=O)NCc4ccc(-c5scnc5C)cc4)C(C)(C)C)CC3)CC2)ccc1Nc1ncc(Cl)c(Nc2ccccc2P(C)(C)=O)n1 [SIAIS164034, (2S,4R)-1-((S)-2-(tert-butyl)-19-(4-(1-(4-((5-chloro-4-((2-(dimethylphosphoryl)phenyl)amino)pyrimidin-2-yl)amino)-3-methoxyphenyl)piperidin-4-yl)piperazin-1-yl)-4,19-dioxo-7,10,13,16-tetraoxa-3-azanonadecanoyl)-4-hydroxy-N-(4-(4-methylthiazol-5-yl)benzyl)pyrrolidine-2-carboxamide] | 88.6 ± 63 | –
11 | 1 to 10 | – | 1 to 10 | – | – | – | COc1cc(N2CCC(N3CCN(C(=O)CCOCCOCCOCCOCCNc4cccc5c4C(=O)N(C4CCC(=O)NC4=O)C5=O)CC3)CC2)ccc1Nc1ncc(Cl)c(Nc2ccccc2P(C)(C)=O)n1 (centres unmarked) [SIAIS164016, 4-((15-(4-(1-(4-((5-chloro-4-((2-(dimethylphosphoryl)phenyl)amino)pyrimidin-2-yl)amino)-3-methoxyphenyl)piperidin-4-yl)piperazin-1-yl)-15-oxo-3,6,9,12-tetraoxapentadecyl)amino)-2-(2,6-dioxopiperidin-3-yl)isoindoline-1,3-dione] | 11.2 ± 6.8 | –
12 | 100 to 500 | – | 20 to 100 | – | – | – | COc1cc(N2CCC(N3CCN(C(=O)CCOCCOCCC(=O)N[C@H](C(=O)N4C[C@H](O)C[C@H]4C(=O)NCc4ccc(-c5scnc5C)cc4)C(C)(C)C)CC3)CC2)ccc1Nc1ncc(Cl)c(Nc2ccccc2P(C)(C)=O)n1 [SIAIS164032, (2S,4R)-1-((S)-2-(3-(2-(3-(4-(1-(4-((5-chloro-4-((2-(dimethylphosphoryl)phenyl)amino)pyrimidin-2-yl)amino)-3-methoxyphenyl)piperidin-4-yl)piperazin-1-yl)-3-oxopropoxy)ethoxy)propanamido)-3,3-dimethylbutanoyl)-4-hydroxy-N-(4-(4-methylthiazol-5-yl)benzyl)pyrrolidine-2-carboxamide] | 54.5 ± 31.2 | –
13 | – | – | – | Not degrade | Not degrade | did not degrade ALK protein | COc1cc(N2CCC(N3CCNCC3)CC2)ccc1Nc1ncc(Cl)c(Nc2ccccc2P(C)(C)=O)n1 [Brigatinib Analogue C(SIAIS164005), (2-((5-chloro-2-((2-methoxy-4-(4-(piperazin-1-yl)piperidin-1-yl)phenyl)amino)pyrimidin-4-yl)amino)phenyl)dimethylphosphine oxide] | 6.7 ± 3.1 | –
14 | 1 to 10 | – | 50 to 100 | – | – | – | COc1cc(N2CCC(N3CCN(C(=O)CCCC(=O)N[C@H](C(=O)N4C[C@H](O)C[C@H]4C(=O)NCc4ccc(-c5scnc5C)cc4)C(C)(C)C)CC3)CC2)ccc1Nc1ncc(Cl)c(Nc2ccccc2P(C)(C)=O)n1 [SIAIS164121, (2S,4R)-1-((S)-2-(5-(4-(1-(4-((5-chloro-4-((2-(dimethylphosphoryl)phenyl)amino)pyrimidin-2-yl)amino)-3-methoxyphenyl)piperidin-4-yl)piperazin-1-yl)-5-oxopentanamido)-3,3-dimethylbutanoyl)-4-hydroxy-N-(4-(4-methylthiazol-5-yl)benzyl)pyrrolidine-2-carboxamide] | 21.6 ± 12.5 | –
